Consider three compounds from US9283257B2, “Compositions comprising solanum tuberosum for lowering cytosolic NADH level to mimic calorie restriction” (Nox Technologies, Inc., priority 2009, dated 2016).

The experiment has as its system NADH levels in yeast. Put plainly: yeast NADH autofluorescence assay. It counts as cell-based, Saccharomyces cerevisiae. The source says: Reduced forms of NAD(P)H show fluorescence with peaks of excitation and emission in the regions of 340 and 450 nm, respectively, that are used to monitor changes in cytosolic NAD(P)H levels. Because oxidized forms of these pyridine nucleotides have minimal fluorescence at this wavelength, a specific strain of Saccharomyces cerevisiae is used as the primary indicator and the assay is set up in a […] microtiter plate format. Fluorescence measurements are taken with an automated plate reader after 2 h of incubation in the presence of at least three log dilutions of the candidate calorie restriction mimic under investigation.
A 10 mL culture of S. cerevisiae (wild type-BY4741, available from American Type Culture Collection, Manassas, Va., ATCC Number 201388) Genotype/ORF/Gene MATa his3delta1 leu2delta0 met15delta0 ura3delta0. The yeast cells are grown overnight in Yeast Extract Peptone Dextrose (YEPD) liquid medium at 30 C with shaking. OD600 of the culture should be between 0.800 and 1.000 prior to assay usage. To remove unwanted autofluorescence, the medium components are removed by the following process.
Aliquots of the yeast culture are transferred to individual 1 mL micro-centrifuge tubes, and the yeast are pelleted in a bench-top centrifuge by spinning at 1000 RPM for 10 min. Excessive centrifugation speeds (over 1000 rpm) are not used because they could damage the yeast; and live yeast are required for the assay. The medium is decanted, and the yeast are resuspended in an equal volume of 1× phosphate buffered saline (137 mM NaCl, 2.7 mM KCl, 10 mM Na2HPO4, 1.76 mM KH2PO4, pH 7.4) and 7.5 mM glucose (PBSG). […] This preparation of yeast is used in the subsequent auto-fluorescence measurements at an optical density (bulk turbidity) at 600 nm between 0.8 and 1.0.
For fluorescence reading samples are added to a black 96 well cell culture plate. […] A single well of each compound or preparation 5 μL+100 μL of 1×PBSG should be added to account for the fluorescence due to additive.
Experiments are conducted using a Fluoroskan II (Titer-Tek) fluorescent plate reader, which is controlled by Genesis software v 2.0 and used in accordance with the manufacturer' instructions. […] These parameters include a) type—whether the measurement is a single measurement or series of measurement over a given time (kinetic), b) excitation and emission wavelengths (for NADH autofluorescence the excitation wavelength is 340 nm and the emission wavelength is 450 nm.) c) interval at which measurements should be taken (every 20 seconds is sufficient) d) duration of each reading which is set at 5 sec per well, and e) the duration of the measurement which is set to 1 hr. […]

The structures appear in SMILES notation. Where two headings read alike, the source gives them in different places.

`O=CC[C@@H](O)[C@H](O)[C@H](O)CO` [2-Deoxyglucose, 2-deoxy-D-glucose]: for the setting “Saccharomyces cerevisiae; read-out: Concentration of known stimulators of NADH oxidation to increase NADH consumption by 50% in the yeast system”, the EC50 turned out to be 2000 µM. The “cytosolic NADH levels” value (glucose of the yeast culture medium replaced with 2DG) is “reduced”.

With `O=C(O)CC(=O)C(=O)O` [Oxaloacetic acid], the EC50 (Saccharomyces cerevisiae, read-out: Concentration of known stimulators of NADH oxidation to increase NADH consumption by 50% in the yeast system) stood at 20 µM.

Consider `CC1(C)CCC2=C(O1)c1ccccc1C(=O)C2=O` [β-Lapachrone], for which the EC50 (yeast system; read-out: Concentration of known stimulators of NADH oxidation to increase NADH consumption by 50% in the yeast system) came out at 40 µM.
